Source: ChEMBL document CHEMBL1123136, “Difluorostatine- and difluorostatone-containing peptides as potent and specific renin inhibitors” (J Med Chem, 1985)
Non-standard residues stand in square brackets, D forms with d. Residues, ends and D or L forms follow the SMILES beside them. *: point of attachment. Sta = CC(C)C[C@H](N)[C@@H](O)CC(=O)O; NHCH2(2-pyridyl) = c1ccc(CN*)nc1; Boc = CC(C)(C)OC(=O)*

What was measured:
Renin = target: T1, Renin (Homo sapiens, UniProt P00797); assay: Plasma renin inhibitory activity was evaluated in lyophilized human plasma with 0.1%EDTA; assay type: cell-free
T1 sequence (P00797 whole entry): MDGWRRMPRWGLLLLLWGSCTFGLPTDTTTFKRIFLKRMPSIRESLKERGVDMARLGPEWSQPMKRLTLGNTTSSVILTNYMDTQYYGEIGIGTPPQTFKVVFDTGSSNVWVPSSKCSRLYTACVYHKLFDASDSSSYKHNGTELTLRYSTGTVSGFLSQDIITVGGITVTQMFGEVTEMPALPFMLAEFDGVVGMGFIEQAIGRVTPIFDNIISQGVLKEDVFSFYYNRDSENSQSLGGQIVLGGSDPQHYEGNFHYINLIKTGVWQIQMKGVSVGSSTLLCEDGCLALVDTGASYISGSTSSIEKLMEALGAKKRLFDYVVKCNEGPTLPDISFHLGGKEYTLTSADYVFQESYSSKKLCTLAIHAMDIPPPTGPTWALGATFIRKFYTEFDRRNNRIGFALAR

Pepsin A = Pepsin A (Sus scrofa, UniProt P00791); assay: Inhibitory activity was evaluated against pepsin using porcine pepsin (sigma), porcine hemoglobin (sigma) and 0.02 M KCl-HCl buffer (pH 2)
[1] = target: T2, Angiotensin-converting enzyme (Oryctolagus cuniculus, UniProt P12822); assay: Inhibitory activity was evaluated against Angiotensin I converting enzyme activity in rabbit
T2 sequence (P12822 whole entry): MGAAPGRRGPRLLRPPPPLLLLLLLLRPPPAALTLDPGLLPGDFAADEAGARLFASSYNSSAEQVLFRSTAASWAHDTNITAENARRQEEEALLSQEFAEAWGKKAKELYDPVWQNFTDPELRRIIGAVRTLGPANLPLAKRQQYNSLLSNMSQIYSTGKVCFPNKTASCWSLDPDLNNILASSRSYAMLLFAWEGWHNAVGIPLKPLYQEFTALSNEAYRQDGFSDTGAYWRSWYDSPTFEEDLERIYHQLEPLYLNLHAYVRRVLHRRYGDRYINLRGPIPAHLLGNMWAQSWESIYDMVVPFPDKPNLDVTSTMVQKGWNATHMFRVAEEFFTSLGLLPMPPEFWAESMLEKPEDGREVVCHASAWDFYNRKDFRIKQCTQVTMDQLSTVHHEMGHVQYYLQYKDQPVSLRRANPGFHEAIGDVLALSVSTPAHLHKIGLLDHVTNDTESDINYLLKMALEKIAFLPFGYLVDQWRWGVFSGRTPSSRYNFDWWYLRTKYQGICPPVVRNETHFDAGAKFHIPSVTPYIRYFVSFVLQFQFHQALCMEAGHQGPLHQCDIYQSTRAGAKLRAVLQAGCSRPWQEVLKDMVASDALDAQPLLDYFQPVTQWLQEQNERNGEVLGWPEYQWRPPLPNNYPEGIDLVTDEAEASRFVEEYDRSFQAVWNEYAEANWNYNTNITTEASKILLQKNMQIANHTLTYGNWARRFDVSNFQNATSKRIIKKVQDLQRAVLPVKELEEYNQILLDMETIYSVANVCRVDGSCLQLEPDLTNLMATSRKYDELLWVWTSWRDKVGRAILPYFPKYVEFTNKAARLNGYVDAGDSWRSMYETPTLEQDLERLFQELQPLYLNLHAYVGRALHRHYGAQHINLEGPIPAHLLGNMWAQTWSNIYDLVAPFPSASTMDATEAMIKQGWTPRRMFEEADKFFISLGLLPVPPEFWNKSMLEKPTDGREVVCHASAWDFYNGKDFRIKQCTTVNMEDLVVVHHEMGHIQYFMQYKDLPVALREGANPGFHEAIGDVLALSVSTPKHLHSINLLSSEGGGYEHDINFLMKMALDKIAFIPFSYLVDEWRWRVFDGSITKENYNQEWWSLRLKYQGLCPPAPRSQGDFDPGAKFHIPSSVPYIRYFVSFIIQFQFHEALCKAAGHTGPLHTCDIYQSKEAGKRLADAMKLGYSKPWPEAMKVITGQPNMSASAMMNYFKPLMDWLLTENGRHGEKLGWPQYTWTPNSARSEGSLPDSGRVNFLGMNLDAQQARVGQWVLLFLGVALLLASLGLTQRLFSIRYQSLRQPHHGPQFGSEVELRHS

Pepsin A, sequence (P00791 whole entry): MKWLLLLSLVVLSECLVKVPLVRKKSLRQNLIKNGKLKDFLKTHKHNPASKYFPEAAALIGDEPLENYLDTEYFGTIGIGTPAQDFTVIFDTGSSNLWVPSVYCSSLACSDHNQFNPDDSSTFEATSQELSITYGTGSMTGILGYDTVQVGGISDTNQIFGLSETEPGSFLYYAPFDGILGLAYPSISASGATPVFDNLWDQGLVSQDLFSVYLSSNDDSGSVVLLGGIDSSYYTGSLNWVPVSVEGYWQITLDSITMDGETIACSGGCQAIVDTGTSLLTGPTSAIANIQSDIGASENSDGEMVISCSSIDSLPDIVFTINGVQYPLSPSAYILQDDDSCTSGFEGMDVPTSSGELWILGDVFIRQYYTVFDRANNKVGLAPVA

IC50 (Renin) | Compound | further results
0.52 nM | CC[C@H](C)[C@H](NC(=O)C(F)(F)C(=O)[C@H](CC(C)C)NC(=O)[C@H](Cc1c[nH]cn1)NC(=O)[C@H](Cc1ccccc1)NC(=O)OC(C)(C)C)C(=O)NCc1ccccn1 | 
34 nM | CC[C@H](C)[C@H](NC(=O)CC(=O)[C@H](CC(C)C)NC(=O)[C@H](Cc1c[nH]cn1)NC(=O)[C@H](Cc1ccccc1)NC(=O)OC(C)(C)C)C(=O)NCc1ccccn1 | 
12 nM | CC[C@H](C)[C@H](NC(=O)C(F)(F)[C@H](O)[C@H](CC(C)C)NC(=O)[C@H](Cc1c[nH]cn1)NC(=O)[C@H](Cc1ccccc1)NC(=O)OC(C)(C)C)C(=O)NCc1ccccn1 | 
730 nM | CC[C@H](C)[C@H](NC(=O)C(F)(F)[C@@H](O)[C@H](CC(C)C)NC(=O)[C@H](Cc1c[nH]cn1)NC(=O)[C@H](Cc1ccccc1)NC(=O)OC(C)(C)C)C(=O)NCc1ccccn1 | 
1.7 nM | CC[C@H](C)[C@H](NC(=O)C[C@H](O)[C@H](CC(C)C)NC(=O)[C@H](Cc1c[nH]cn1)NC(=O)[C@H](Cc1ccccc1)NC(=O)OC(C)(C)C)C(=O)NCc1ccccn1 (Boc-FH[Sta]I-{NHCH2(2-pyridyl)}) | 
 | CC(C)CC(=O)N[C@H](C(=O)N[C@H](C(=O)N[C@@H](CC(C)C)[C@@H](O)CC(=O)N[C@@H](C)C(=O)N[C@@H](CC(C)C)[C@@H](O)CC(=O)O)C(C)C)C(C)C [PEPSTATIN] | IC50 (Pepsin A): 10 nM
 | H-PHPFHFFVYK-OH [RIP] | IC50 [1]: 12 µM
